Laboratory results from patent EP4737449A1 (Changchun Genescience Pharmaceutical Co., Ltd., priority 2023, dated 2025).

Experiments:
[1] = Caco-2 cell permeability test; format: in vitro ADME; details: human, Caco-2, 10 µM compound; for Papp A→B at 120 min, 10 µM / Papp B→A at 120 min, 10 µM / efflux ratio at 120 min, 10 µM: pH 7.4; for efflux ratio at 120 min, 10 µM: read-out: Efflux rate
Protocol: • 1) Cell culture: The resuscitated Caco-2 cells were cultured in DMEM culture solution containing 10% FBS, 1% Penicillin-Streptomycin Liquid (100X) and 1% NEAA in an incubator at 37 °C with 5% CO2. The culture medium was replaced every 2-3 days and subculture was carried out when the cell confluence reached about 80%. • 2) Preparation of transport buffer: Transport buffer (pH 7.4) was prepared by adding 5 mL of 1M HEPES to 500 mL of HBSS (with or without BSA) to a final concentration of 10 mM HEPES (with or without BSA). • 3) Before the start of the transport experiment (day 14-28), the culture medium was taken out from the cell culture plate, the plate was washed twice with preheated HBSS buffer (10 mM HEPES, pH 7.4), and 100 µL of HBSS buffer was added into each well. After incubation at 37°C for 30 min, the TEER values were measured by a cell resistance meter (Millicell-ERS2) to confirm the integrity and compactness of the monolayer cells. • 4) The HBSS buffer was discarded, the upper plate containing the cell monolayer membrane was transferred to the corresponding receiving plate, the test compound solution or buffer was added to the top (A side) and the basal side (B side), respectively, the cell plate was placed in the corresponding 96-well receiving plate, and grouping was carried out according to Table 6. The prepared positive control drug, test compound or HBSS (with or without BSA) buffer were added to the A side or B side of the Transwell cell plate filter membrane, and the cell plate was incubated at 37°C. Table 6. Compound grouping scheme
• 1) After incubation for 5 min, a sample was taken from the A and B administration sides, 8 µL each side, and added into 72 µL of transport buffer (diluted 10 times) to serve as T0 of the initial administration solution. • 2) After incubation for 120 min, the samples from both ends of the Transwell cell plate filter membrane were collected, and 80 µL of sample solution was taken from the receiving side to serve as the sample at the receiving side after transport, and 8 µL of sample was taken from the administration side and added into 72 µL of transport buffer to serve as the sample at the administration side after transport. • 3) After collecting the samples from both sides, the plate was gently tapped to discard the remaining solution in the cell plate, the cell plate was rinsed with the transport buffer, 100 µL of acetonitrile solution containing internal standard working solution was added to each well to lyse the cells, the system was pipetted up and down to well mix it, and then 80 µL of cell lysate from each well was measured by pipetting to serve as the sample after cell lysis. • 4) After collecting all samples in the transport system (T0 sample, receiving side sample, and donor side sample), 160 µL of IS/ACN solution was added to each well, 80 µL of IS/ACN solution was added to the collected lysate sample, and then the sample was sealed. • 5) The sample plate was shaken for 10 min, and stored at -20°C before LC-MS/MS analysis. • 6) A standard curve was plotted, and then 8 µL of standard curve solution was taken and mixed with 72 µL of transport buffer and 160 µL of IS/ACN to serve as the standard curve sample. • 7) All the above samples were centrifuged at 6000 RPM for 10 min, 100 µL of supernatant was taken, 100 µL of H2O was added, and the mixture was fully mixed, and analyzed by LC-MS/MS.

PXR = biological target: T1, PXR (Homo sapiens, UniProt O75469); assay: PXR activity test in DPX2 cells (luciferase); format: cell-based; details: for Activation fold: DPX2 cells, 24 h; for Percentage relative to positive control: positive control rifampicin
T1 construct: expressed in transfected cells; host or cells: DPX2 cells
T1 sequence (O75469 1-434): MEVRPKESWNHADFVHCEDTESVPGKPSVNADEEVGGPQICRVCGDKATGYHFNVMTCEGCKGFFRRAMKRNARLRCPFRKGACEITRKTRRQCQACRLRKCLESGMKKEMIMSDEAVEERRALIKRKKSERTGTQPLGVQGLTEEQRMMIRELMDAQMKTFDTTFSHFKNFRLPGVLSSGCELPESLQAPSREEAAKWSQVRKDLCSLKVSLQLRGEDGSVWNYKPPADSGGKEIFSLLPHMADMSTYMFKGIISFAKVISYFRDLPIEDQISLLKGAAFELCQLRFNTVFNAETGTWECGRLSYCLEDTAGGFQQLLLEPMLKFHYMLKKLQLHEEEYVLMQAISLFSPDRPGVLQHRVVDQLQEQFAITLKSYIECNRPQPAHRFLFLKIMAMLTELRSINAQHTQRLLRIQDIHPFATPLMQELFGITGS
Protocol: The cells were digested when they covered 80-90% of the bottom of the flask. • 3) The surface of the T-75 cultured cells was washed with 10 mL of PBS, PBS was removed by pipetting, 3-5 mL of trypsin was added, the cells were digested at 37°C for 5 min or until the cells were completely digested and in a suspended state, and excessive culture medium containing fetal bovine serum was added to terminate trypsin digestion. • 4) The cell suspension was transferred to a conical-bottom centrifuge tube and centrifuged at 150 g for 5 min at room temperature. The supernatant was carefully removed by pipetting and the cells were re-suspended in treatment medium to have a concentration of 3.2×10^5 cells/mL (incubation time 24 h, plate seeding density […]). In a 384-well cell culture plate, 25 μL of cell suspension was added to each well. The cell plate was placed in an incubator at 95% humidity, 37°C, and 5% CO2 for 24 h. […] The cell plates were placed in an incubator and further incubated for 24 h. • 3) Before starting experiments with the substrate, cell morphology and monolayer integrity were checked to ensure the monolayer is of acceptable quality for studies. […] GF-AFC substrate (10 μL) was added to Assay Buffer (10 ml) to form 2X reagent, which was then diluted into 1X reagent with 10 mL of PBS. ONE-Glo Luciferase substrate was added to ONE-Glo Luciferase Assay Buffer. • 3) The culture plate was taken out of the incubator, the culture medium was discarded, 1X CellTiter-Fluor^TM reagent was poured into the sample loading slot, 25 μL of reagent was added to each well of the culture plate using a pipetting workstation, and then the plate was placed in the incubator for incubation for 30 min. • 4) The cell culture plate was taken out from the incubator, cooled slightly to room temperature, and the fluorescence value was measured by automatic quantitative microplate reader. […] The activation fold of mRNA is calculated using the following formula: Fold activation = (RLUtest/RFUtest)/(RLUvehicle/RFUvehicle) [formula] 2) The percentage of cell viability of the compound is calculated as follows: Cell Viability % = (RFUtest/RFUvehicle) × 100 [formula] 3) The percentage relative to the positive control is calculated according to the following formula: Percent of positive control(%) = (Foldactivationtest/[…]:?}

[2] = Concentration 1 (µM per method)
[3] = Concentration 10 (µM per method)

SMILES	Papp A→B at 120 min, 10 µM ([1]; 120 min) [×10⁻⁶ cm/s]	Papp B→A at 120 min, 10 µM ([1]; 120 min) [×10⁻⁶ cm/s]	efflux ratio at 120 min, 10 µM [1]	Activation fold (PXR; [2])	Percentage relative to positive control (PXR; [2]) [%]	Activation fold (PXR; [3])	Percentage relative to positive control (PXR; [3]) [%]	Papp A→B at 2 h ([1]; 120 min) [×10⁻⁶ cm/s]	Papp B→A at 2 h ([1]; 120 min) [×10⁻⁶ cm/s]
CN1CC[C@@H](Nc2cccc3c(CC(F)(F)F)c(C#CCNC(=O)c4cnn(C(C)(C)C)c4)nn23)[C@@H](F)C1 [Compound 001, 1-tert-butyl-N-[3-(7-{[(3S,4R)-3-fluoro-1-methylpiperidin-4-yl]amino}-3-(2,2,2-trifluoroethyl)pyrazolo[1,5-a]pyridin-2-yl)prop-2-yn-1-yl]-1H-pyrazole-4-carboxamide]	4.39	6.5	1.48	1.41	8.07	3.05	17.50	–	–
CN1CC[C@@H](Nc2cccc3c(CC(F)(F)F)c(C#CCNC(=O)c4cnn(C(C)(C)C)c4N)nn23)[C@@H](F)C1 [Compound 047]	–	–	1.51	1.12	5.67	2.66	13.47	5.18	7.8
CCn1ncc(C(=O)NCC#Cc2nn3c(N[C@@H]4CCN(C)C[C@@H]4F)cccc3c2CC(F)(F)F)c1N [Compound 261, 5-amino-1-ethyl-N-[3-(7-{[(3S,4R)-3-fluoro-1-methylpiperidin-4-yl]amino}-3-(2,2,2-trifluoroethyl)pyrazolo[1,5-a]pyridin-2-yl)prop-2-yn-1-yl]-1H-pyrazole-4-carboxamide]	–	–	–	0.89	4.48	1.43	7.20	–	–
CNC(=O)c1ccc(NCC#Cc2cc3c(N[C@@H]4CCN(C)C[C@@H]4F)cccc3n2CC(F)(F)F)c(OC)c1 [Control compound, reference compound]	4.68	19.4	4.16	1.40	8.61	8.58	52.82	–	–
